The target in one data set is NEMO-IKKβ interaction (Homo sapiens, UniProt Q9Y6K9). Description: HTRF assay of inhibition of the NEMO-IKKβ interaction. The class given is binding. As to conditions: insertion of Ala N-terminal to the internal Dap, vs peptide 6.
In another data set the test system is HeLa cells. Nature of the data set: Flow cytometry analysis of cellular uptake of FITC-labeled peptides. Type of data set: cell-based. To be noted: relative to CPP1. Background: Flow cytometry measures light scatter and fluorescence of single cells or particles in a stream.
Data set [1] has as its system TNFα-induced NF-κB activation in HEK293(Luc) cells. Nature of the data set: NF-κB luciferase assay, TNFα-induced. Type of data set: cell-based.
The subject of data set [2] is basal NF-κB activity in HEK293(Luc) cells. Description: NF-κB luciferase assay, basal. The class given is cell-based. As to conditions: absence of TNFα stimulation.
Another data set has as its system HT29 colon cancer cells. Description: Immunoblot analysis of IKKβ and IκBα levels. The class given is cell-based. (A western blot detects proteins with antibodies after separation by electrophoresis.)
The test system of data set [3] is ovarian surface epithelial cells (OSE). Nature of the data set: Methylene blue cell viability assay, OSE. The class given is cell-based. To be noted: 72 h.
Another data set concerns A375 melanoma cells. Description: Cell viability assay, A375. The class given is cell-based.
The test system of data set [4] is A2780 ovarian cancer cells. Description: Live-cell confocal microscopy of cell entry. Type of data set: cell-based. To be noted: 5 μM FITC-labeled peptide, 2 h.
In data set [5] the target is panel of control proteins. Description: Fluorescence anisotropy. As to conditions: fluorescently labeled peptide, FA assay.
[6] abbreviates: 0–25 μM, HT29 cells, TNFα, Western blot.

As usually defined, the IC50 is the concentration at which inhibition is half-maximal. Read a high IC50 as weaker potency in that assay. A word on the Kd: it is the free concentration of one partner at which half of the binding sites on the other are occupied at equilibrium, for simple one-to-one binding. Read a high Kd as a looser complex.

*1 amine or outer side, *2 acyl side, *3 side chain or, on linkers, in order; H or OH if unused. Where a SMILES comes first, the peptide text is derived from it. Bridges are numbered along the chain shown (N, C = ends). [ ]: non-standard residue; d: D form. Trimesoyl = O=C(c1cc(C(=O)[*:2])cc(C(=O)[*:3])c1)[*:1]; 2Nal = N[C@@H](Cc1ccc2ccccc2c1)C(=O)O; Dap = NC[C@H](N)C(=O)O; βAla = NCCC(=O)O A value given as a limit tells only on which side of the number the result lay.

Sequence of NEMO-IKKβ interaction (Q9Y6K9 1-196): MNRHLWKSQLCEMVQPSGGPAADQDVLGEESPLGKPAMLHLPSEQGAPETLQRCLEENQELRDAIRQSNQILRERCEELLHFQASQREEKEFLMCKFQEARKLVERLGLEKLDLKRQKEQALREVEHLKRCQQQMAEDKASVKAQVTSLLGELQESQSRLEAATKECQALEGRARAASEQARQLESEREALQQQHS

For the compound `CC[C@H](C)[C@@H]1NC(=O)[C@H](Cc2c[nH]c3ccccc23)NC(=O)CNC(=O)c2cc3cc(c2)C(=O)NC[C@@H](C(=O)NCCC(=O)NCCC(=O)N[C@@H](CCCCN)C(N)=O)NC(=O)[C@H](CCCNC(=N)N)NC(=O)[C@@H](CCCNC(=N)N)NC(=O)[C@H](CCCNC(=N)N)NC(=O)[C@H](Cc2ccc4ccccc4c2)NC(=O)[C@H](Cc2ccccc2)NC(=O)[C@H](CNC3=O)NC(=O)[C@H](C)NC(=O)[C@H](Cc2ccc(O)cc2)NC1=O` [peptide 7, Tm(GWIYA)Δ(FΦRrRΔ)-BBK] (GWIYA[Dap]F[2Nal]R[dR]R[Dap][βAla][βAla]K-NH2; linker N-6-12 via Trimesoyl; C-terminus assumed), on NEMO-IKKβ interaction, the “increase of binding affinity” value is given as 5.9 fold. In the data set with HeLa cells, the cell permeability amounted to 163%. This compound came in with an IC50 in data set [1] of 10 µM. Further, in data set [2], the “effect on basal NF-κB activity” value is recorded as “did not inhibit” and the “increase in the basal NF-κB activity” value is listed as ~ 1.5 fold. In addition, in the data set with HT29 colon cancer cells (setting [6]), the “TNFα-induced phosphorylation of IKKβ” value is recorded as “dose-dependently inhibited” and the “total intracellular IKKβ level” value is “unchanged”. Further, the “phospho-IKKβ or IκBα level” value with HT29 colon cancer cells (HT29 cells not stimulated with TNFα) is on record as “no effect”. Moreover, the “intracellular level of IκBα” value with HT29 colon cancer cells (HT29 cells, TNFα, Western blot) is “increased”. The effect on viability result in [3] is recorded as “no significant effect”. For the same compound, the effect on viability entry with A375 melanoma cells is reported as “reduced the viability”. Besides, the “cell entry (fluorescence)” value in data set [4] is recorded as “intense green fluorescence inside all cells”. The same compound showed an equilibrium dissociation constant (Kd) in data set [5] of over 10 µM.

“RQIKIWFQNRRMKWKKGGTALDWSWLQTE [peptide 1, reference compound]”: in data set [1], the IC50 was about 41 µM.

The values above are taken from PMC6231237 (Journal of the American Chemical Society, 2018).
